Experimental data from US7279502B2, “Polyamine analog conjugates and quinone conjugates as therapies for cancers and prostate diseases” (Cellgate, Inc., priority 1999, dated 2007).
Where two headings read alike, the source gives them in different places. One block for each compound: values may come before it.

Columns and labels:
[1] = system: prostate xenograft tumors; conditions: nude mice; cited from earlier work
[2] = Creaven et al. (1997); cited from earlier work
[3] = system: A549 human large cell hung carcinoma; conditions: constant infusion via Alzet pump delivery for 5 days; cited from earlier work
[4] = rats, Kanter et al. (1994); cited from earlier work
[5] = in one study; cited from earlier work
[6] = system: human prostate adenocarcinoma cell line DU145; experiment: MTT assay, quinones, DU145; format: cell-based; conditions: DU-145, Table 3, treatment time not given in cell, read-out: ID50 DU145
Method: (§1) Cell Culture: The human lung adenocarcinoma cell line, A549, and human prostatic cancer cell line, DUPRO, were a gift from Dr. M. Eileen Dolan, University of Chicago, Department of Medicine. A549 was grown in Ham's F-12K medium (Fisher Scientific, Itasca, Ill.) supplemented with 10% fetal bovine serum and 2 mM L-glutamine. DUPRO was grown in RPMI-1640 supplemented with 10% fetal bovine serum. The human colon carcinoma cell line, HT29, and the human breast carcinoma cell line, MCF7, were obtained from the American Type Culture Collection, Rockville, Md. HT29 cells were grown in McCoy's 5A medium (Gibco, BRL, Gaithersburg, Md.) supplemented with 10% fetal bovine serum. MCF7 cells were grown in Richter's Improved Modified Eagle's medium supplemented with 10% fetal bovine serum and 2.2 g/L sodium bicarbonate. The human prostate adenocarcinoma cell lines, LNCAP, PC-3 and DU145, were gifts from Dr. George Wilding, University of Wisconsin Comprehensive Cancer Center and the Department of Medicine, and were grown in Dulbecco's Modified Eagle's medium supplemented with a 5% fetal bovine serum. The malignant glioma cell line, U251MG NCI was obtained from the brain tumor tissue bank at the University of California, San Francisco Department of Neurosurgery, and was grown in Dulbecco's Modified Eagle's medium supplemented wth 10% fetal bovine serum. DUPRO, A549 and MCF7 cells were grown in 100 units/mL penicillin and 100 μg/mL streptomycin. HT29 and U251MG NCI cells were grown in 50 μg/mL gentamycin. LNCAP, PC-3 and DU145 cells were maintained in 1% antibiotic antimycotic solution (Sigma, St. Louis, Mo.). All cell cultures were maintained at 37° C. in 5% CO2/95% humidified air.
(§2) MTT assay. Exponentially growing monolayer cells were plated in 96 well plates at a density of 500 cells/well and allowed to grow for 24 h. Serially diluted drug solutions were added such that the final drug concentrations in the treatment media were between 0 and 35 μM. […] A microplate reader (E max, Molecular Devices, Sunnyvale, Calif.) set at 570 nm was used to determine the optical density. […]

[7] = system: human prostatic cancer cell line, DUPRO; experiment: MTT assay, quinones, DUPRO; format: cell-based; conditions: Table 3, treatment time not given in cell, read-out: ID50 DUPRO
Method: as §1, §2

[8] = system: human prostate adenocarcinoma cell line PC-3; experiment: MTT assay, quinones, PC-3; format: cell-based; conditions: Table 3, treatment time not given in cell, read-out: ID50 PC-3
Method: as §1
(§3) MTT assay. Exponentially growing monolayer cells were plated in 96 well plates at a density of 500 cells/well and allowed to grow for 24 h. Serially diluted drug solutions were added such that the final drug concentrations in the treatment media were between 0 and 35 μM. Cells were incubated with drug at either 4 hr or 72 hr. After 4 hr and 72 hr treatment, drugs were removed, fresh media (without) drug (100 uL) was added and cells were incubated for 6 days. After six days, 25 μL of a Dulbecco's phosphate-buffered saline solution containing 5 mg/mL of MTT (Thiazolyl blue) (Sigma) was added to each well and incubated for 4 h at 37° C. Then 100 μL of lysis buffer (20% sodium dodecyl sulfate, 50% N,N-dimethylformamide and 0.8% acetic acid, pH 4.7) was added to each well and incubated for an additional 22 h. A microplate reader (E max, Molecular Devices, Sunnyvale, Calif.) set at 570 nm was used to determine the optical density. Results were plotted as a ratio of the optical density in drug treated wells to the optical density in wells treated with vehicle alone. Plotting and estimation of ID50 values were accomplished with manufacturer supplied software. The data is presented below in Tables 3, 4, 5 and 6.

[9] = system: malignant glioma cell line, U251MG NCI; experiment: MTT assay, quinones, U251MG NCI; format: cell-based, human; conditions: read-out: ID50 Brain U251-MG
Method: as §1, with “The malignant glioma cell line, U251MG NCI was obtained from the brain tumor tissue bank at the University of California, San Francisco Department of Neurosurgery, and was grown in Dulbecco's Modified Eagle's medium supplemented wth 10% fetal bovine serum. DUPRO, A549 and MCF7 cells were grown in 100 units/mL penicillin and 100 μg/mL streptomycin. HT29 and U251MG NCI cells were grown in 50 μg/mL gentamycin. LNCAP, PC-3 and DU145 cells were maintained in 1% antibiotic antimycotic solution (Sigma, St. Louis, Mo.). All cell cultures were maintained at 37° C. in 5% CO2/95% humidified air.” left out
MTT assay. […] A microplate reader (E max, Molecular Devices, Sunnyvale, Calif.) set at 570 nm was used to determine the optical density. […]

[10] = system: human breast carcinoma cell line, MCF7; experiment: MTT assay, quinones, MCF7; format: cell-based; conditions: Table 4, treatment time not given in cell, read-out: ID50 Breast MCF7
Method: as §1, §3

[11] = system: human brain tumor cells U251 MG NCI; experiment: MTT assay, polyamine analogs, U251 MG NCI; format: cell-based
Method: (§4) Human breast cancer cell line MCF7 was grown in Richter's Improved Modified Eagle's Medium supplemented with 10% fetal bovine serum (FBS) and 2.2 g/L sodium bicarbonate. Human brain tumor cell line U251 MG-NCI was grown in Dulbecco's Modified Eagle's Medium supplemented with 10% FBS. Human lung cancer cell line A549 was grown in Ham's F-12K medium (Cellgro, Mediatech, Inc., VA), supplemented with 10% FBS and 2 mM L-glutamine. Human colon cancer cell line HT29 was cultured in McCoy's 5A medium (Gibco, BRL, Gaithersburg, Md.) supplemented with 10% FBS. Human prostate cancer cell lines PC-3, LNCAP and DuPro were grown in RPMI 1640 Medium (Cellgro, Mediatech, Inc., VA) supplemented with 10% FBS. Another human prostate cancer cell line DU145 was grown in Dulbecco's Modified Eagle's Medium (Gibco, BRL, Gaithersburg, Md.) supplemented with 5% FBS. The A549, MCF7, PC3, LNCAP and DuPro cell lines were cultured in 100 units/mL penicillin and 100 μg/mL streptomycin. HT29 and U251MG cell lines were grown in 50 μg/mL gentamycin (Gibco, BRL, Gaithersburg, Md.). DU145 cell line was maintained in 1% antibitic-antimycotic solution (Sigma, St. Louis, Mo.). The cell cultures were maintained at 37° C. in 5% CO2/95% humidified air. DuPro cells were obtained from M. Eileen Dolan, University of Chicago. All other cells are available from the American Type Culture Collection, Rockville, Md.
(§5) A conventional MTT assay was used to evaluate percent cell survival. Exponentially growing monolayer cells were plated in 96-well plates at a density of 500 cells per well and allowed to grow for 24 hours. Serial dilutions of the drugs were added to the wells. Six days after drug treatment, 25 μl of MTT solution (5 mg/ml) was added to each well and incubated for 4 hours at 37° C. Then 100 μl of lysis buffer (20% sodium dodecyl sulfate, 50% DMF, and 0.8% acetic acid, pH 4.7) was added to each well and incubated for an additional 22 hours. A microplate reader (“EMAX”-brand, Molecular Devices, Sunnyvale, Calif.) set at 570 nm was used to determine the optical density of the cultures. Results are expressed as a ratio of the optical density in drug-treated wells to the optical density in wells treated with vehicle only.

[12] = system: human prostate cancer cells PC3; experiment: MTT assay, polyamine analogs, PC3; format: cell-based; conditions: PC-3, survival of cultured PC3 cells, figure legends, read-out: ED50 (the source's name)
Method: as §4, §5

[13] = system: human prostate cancer cells DUPRO; experiment: MTT assay, polyamine analogs, DUPRO; format: cell-based; conditions: Homo sapiens, DuPro
Method: as §4, §5

[14] = system: human prostate cancer cells DU145; experiment: MTT assay, polyamine analogs, DU145; format: cell-based; conditions: Homo sapiens
Method: as §4, §5

[15] = system: human lung cancer cells A549; experiment: MTT assay, polyamine analogs, A549; format: cell-based; conditions: Homo sapiens
Method: (§6) As shown in Table 2 and FIGS. 1-32, several novel conformationally restricted polyamine analogs were tested for anti-proliferative properties against cancer cells.
as §4, §5

[16] = system: human prostate cancer cells LNCAP; experiment: MTT assay, polyamine analogs, LNCAP; format: cell-based; conditions: Homo sapiens, LNCaP, survival of cultured LNCAP cells, figure legends; read-out: ED50 (the source's name)
Method: as §4
A conventional MTT assay was used to evaluate percent cell survival. Exponentially growing monolayer cells were plated in 96-well plates at a density of 500 cells per well and allowed to grow for 24 hours. Serial dilutions of the drugs were added to the wells. Six days after drug treatment, 25 μl of MTT solution (5 mg/ml) was added to each well and incubated for 4 hours at 37° C. […] A microplate reader (“EMAX”-brand, Molecular Devices, Sunnyvale, Calif.) set at 570 nm was used to determine the optical density of the cultures. Results are expressed as a ratio of the optical density in drug-treated wells to the optical density in wells treated with vehicle only.

[17] = system: human colon cancer cells HT29; experiment: MTT assay, polyamine analogs, HT29; format: cell-based
Method: as §6, §4, §5

[18] = system: human breast cancer cells MCF7; experiment: MTT assay, polyamine analogs, MCF7; format: cell-based
Method: as §6, §4, §5

tumor cell lines = experiment: In vitro anti-proliferative testing, summary statements; format: cell-based, human; conditions: FIGS. 57-59: PC3, DUPRO, LNCAP
Method: as §5

SMILES: CCNCCCNCCCNCCCNCC [BE-333, N1,N11-diethylnorspermine]
- inhibition of prostate xenograft tumors [1]: particularly effective in inhibiting prostate xenograft tumors in nude mice
- side effects [2]: headache, nausea and vomiting, unilateral weakness, dysphagia, dysarthria, numbness, paresthesias, and ataxia
- anti-tumor activity, effect of schedule [3]: dramatically improves the anti-tumor activity
- toxicity on administration [4]: labored breathing, convulsive movements and acute death

SMILES: CCNCCCNCCCCCCCNCCCNCC [BE-373]
- inhibition of prostate xenograft tumors [1]: particularly effective in inhibiting prostate xenograft tumors in nude mice

SMILES: CCNCCCCNCCCCNCCCCNCCCCNCC [BE-4444, 1,19-bis(ethylamino)-5,10,15-triazanonadecane]
- inhibition of prostate xenograft tumors [1]: particularly effective in inhibiting prostate xenograft tumors in nude mice

SMILES: CC(/C=N/NC(=N)N)=N\NC(=N)N [MGBG, methylglyoxal-bis-guanylhydrazone]
- side effects, drug deaths [5]: drug deaths occurred in over half of treated animals

- IC50 [6]: 11200 nM
- IC50 [7]: 19300 nM
- IC50 [8]: 17100 nM
SMILES: O=C1C=C(OCCCCCCO)c2ccccc2C1=O [SL-11051]

SMILES: CC1(C)CCC2=C(O1)c1ccccc1C(=O)C2=O [SL-11058]
- IC50 ([9]; Table 6, non-quinone compounds): > 31200 nM

- IC50 [10]: 17200 nM
SMILES: O=C1C=C(OCCCCCNC2CCCCC2)c2ccccc2C1=O [SL-11060]
- IC50 ([9]; Homo sapiens, U-251, Table 4, treatment time not given in cell): > 31200 nM

- IC50 [6]: 130 nM
- IC50 [7]: 2200 nM
- IC50 [8]: 700 nM
SMILES: O=C1C=C(OCCCCCCCc2ccc(Nc3c4ccccc4nc4ccccc34)cc2)c2ccccc2C1=O [SL-11064, Quinone-anilinoacridine]

- IC50 ([13]; 144 h, read-out: concentration needed for 50% growth inhibition (ID50) DUPRO, Table 2, MTT six days after drug treatment): 980 nM
- IC50 ([14]; DU-145, 144 h, read-out: concentration needed for 50% growth inhibition (ID50) DU-145, Table 2, MTT six days after drug treatment): 130 nM
- IC50 ([15]; A549, 144 h, read-out: concentration needed for 50% growth inhibition (ID50) A549, Table 2, MTT six days after drug treatment): > 31200 nM
- IC50 ([17]; HT-29, 144 h, read-out: concentration needed for 50% growth inhibition (ID50) HT-29, Table 2, MTT six days after drug treatment): 2000 nM
- IC50 ([18]; MCF7, 144 h, read-out: concentration needed for 50% growth inhibition (ID50) MCF7, Table 2, MTT six days after drug treatment): > 31200 nM
SMILES: CCNC/C=C\CNC/C=C\CNC/C=C\CNCC [SL-11108]
- IC50 ([11]; U-251, 144 h, read-out: concentration needed for 50% growth inhibition (ID50) U251MG, Table 2, MTT six days after drug treatment): 2000 nM
- EC50 ([11]; U-251, survival of cultured U251 MG NCI cells, figure legends, read-out: ED50 (the source's name)): 2000 nM
- EC50 [12]: 2200 nM
- EC50 ([13]; survival of cultured DUPRO cells, figure legends, read-out: ED50 (the source's name)): 980 nM
- EC50 ([14]; DU-145, survival of cultured DU145 cells, figure legends, read-out: ED50 (the source's name)): 130 nM
- EC50 ([15]; A549, survival of cultured A549 cells, figure legends, read-out: ED50 (the source's name)): > 31200 nM
- EC50 [16]: 7700 nM
- EC50 ([17]; HT-29, survival of cultured HT29 cells, figure legends, read-out: ED50 (the source's name)): 2000 nM
- EC50 ([18]; MCF7, survival of cultured MCF7 cells, figure legends, read-out: ED50 (the source's name)): > 31200 nM

- IC50 [6]: 130 nM
- IC50 [7]: 7900 nM
- IC50 [10]: 5100 nM
- IC50 [8]: 5900 nM
SMILES: O=C1C=C(CCCCCCCCc2ccc(Nc3c4ccccc4nc4ccccc34)cc2)c2ccccc2C1=O [SL-11125, Quinone-acridine]

SMILES: CCNCCCCNCCCCNCCCCNCCCCNCCO [SL-11141]
- effectiveness against tumor cell lines in vitro (tumor cell lines): display effectiveness against tumor cell lines in vitro
